Results published in paper PMC8300687, “A Fine-Tuned Lipophilicity/Hydrophilicity Ratio Governs Antibacterial Potency and Selectivity of Bifurcated Halogen Bond-Forming NBTIs” (Antibiotics, 2021).
In brackets after ≈: the same amount, converted by molar mass.

How the values were obtained:
[1] = test system: HepG2; experiment: Metabolic activity assessment (cytotoxicity), HepG2; format: cell-based; settings: Homo sapiens
Protocol: Cells of the HepG2 line (ATCC® HB-8065™) and HUVEC (ATCC® CRL-1730™) were cultured in Dulbecco’s Modified Eagle Medium (DMEM; Sigma-Aldrich, St. Louis, MO, USA) supplemented with 10% heat-deactivated FBS (Gibco, Grand Island, NE, USA), 2 mM L-glutamine, 100 U/mL penicillin, 100 μg/mL streptomycin (all from Sigma-Aldrich, St. Louis, MO, USA) in a humidified chamber at 37 °C and 5% CO2. The experiments were carried out on passages 7–9 for both cell lines. The tested compounds were dissolved in DMSO and further diluted in culture medium to a desired final concentration. Cells were seeded into 96-well plates at 8 × 10^4 cells/mL (100 μL/well) and incubated for 24 h to attach onto the wells. Cells were treated with 1 μM and 50 μM of each compound of interest or corresponding vehicle as control. […] The metabolic activity was assessed after 72 h treatment using the CellTiter 96 Aqueous One Solution Cell Proliferation Assay (Promega, Madison, WI, USA), in accordance with the manufacturer’s instructions. The absorbance was measured at 492 nm on an automated microplate reader BioTek Synergy HT (BioTek Instruments, Inc., Winooski, VT, USA). Data are presented as the percentage of metabolic activity of control cells stimulated with vehicle or as IC50 value (mean ± SD) from two independent experiments, each conducted in duplicate or triplicate. IC50 values were calculated by a non-linear regression model using Graph Pad Prism 7 software.

[2] = Equilibrium solubility at pH 6.8; settings: phosphate buffered saline, 37 °C, pH 6.8, aqueous buffer, thermodynamic from solid
Protocol: Prior to the measurements of solubility and permeability isocratic HPLC methods were developed. […] The individual method parameters for each compound are given in the Supplementary Materials Table S1.
The vials were then placed in a homogenizer (Next Advance Bullet Blender, Troy, NY, USA) for 5 min ad speed setting “2” after which they were kept in a thermostated shaker (Tehtnica HeatMix, Domel, Slovenia) at 37 °C and 1200 RPM for 24 h. […] Twenty µL of these solutions were injected for the HPLC analysis by the described methods (Supplementary Materials Table S1). External standards for calibration were made in a mobile phase with 5% acetonitrile in a range of 30–90 mg/L and injected at 20 µL injection volumes.

[3] = test system: M. avium; experiment: MIC, M. avium; format: cell-based; settings: Mycobacterium avium; read-out: MIC M. avium
Protocol: (§1) Antimicrobial testing was carried out by the broth microdilution method in 96-well plate format following the Clinical and Laboratory Standards Institute (CLSI) guidelines and European Committee on Antimicrobial Susceptibility Testing (EUCAST) recommendations. Bacterial suspension of specific bacterial strain equivalent to 0.5 McFarland turbidity standard was diluted with cation-adjusted Mueller Hinton broth with TES (Thermo Fisher Diagnostic, Landsmeer, The Netherlands), to obtain a final inoculum of 10^5 CFU/mL. Compounds dissolved in DMSO and inoculum were mixed together and incubated for 18–20 h at 35 °C. Suspensions of Mycobacterium sp. were prepared into a tube of Middelbrook 7H9 broth supplemented with 5% OADC (Thermo Scientific, Trek Diagnostic Systems, West Sussex, UK) and incubated for at least 10 days. After incubation the minimal inhibitory concentration (MIC) values were determined by visual inspection as the lowest dilution of compounds showing no turbidity. Tetracycline was used as a positive control on every assay plate.

[4] = test system: A. baumannii 8C6 (GES-14); experiment: MIC broth microdilution, A. baumannii; format: cell-based; settings: Acinetobacter baumannii; read-out: MIC A. baumannii 8C6 (GES-14)
Protocol: as §1

[5] = target: T1, S. aureus DNA gyrase (Staphylococcus aureus, UniProt P20831); experiment: gel-based S. aureus Gyrase Supercoiling assay (Inspiralis); format: biochemical; settings: gel-based assays by Inspiralis, as detailed in [13]
T1 construct: purchased Inspiralis (Norwich, UK)
T1 sequence (P20831 whole entry): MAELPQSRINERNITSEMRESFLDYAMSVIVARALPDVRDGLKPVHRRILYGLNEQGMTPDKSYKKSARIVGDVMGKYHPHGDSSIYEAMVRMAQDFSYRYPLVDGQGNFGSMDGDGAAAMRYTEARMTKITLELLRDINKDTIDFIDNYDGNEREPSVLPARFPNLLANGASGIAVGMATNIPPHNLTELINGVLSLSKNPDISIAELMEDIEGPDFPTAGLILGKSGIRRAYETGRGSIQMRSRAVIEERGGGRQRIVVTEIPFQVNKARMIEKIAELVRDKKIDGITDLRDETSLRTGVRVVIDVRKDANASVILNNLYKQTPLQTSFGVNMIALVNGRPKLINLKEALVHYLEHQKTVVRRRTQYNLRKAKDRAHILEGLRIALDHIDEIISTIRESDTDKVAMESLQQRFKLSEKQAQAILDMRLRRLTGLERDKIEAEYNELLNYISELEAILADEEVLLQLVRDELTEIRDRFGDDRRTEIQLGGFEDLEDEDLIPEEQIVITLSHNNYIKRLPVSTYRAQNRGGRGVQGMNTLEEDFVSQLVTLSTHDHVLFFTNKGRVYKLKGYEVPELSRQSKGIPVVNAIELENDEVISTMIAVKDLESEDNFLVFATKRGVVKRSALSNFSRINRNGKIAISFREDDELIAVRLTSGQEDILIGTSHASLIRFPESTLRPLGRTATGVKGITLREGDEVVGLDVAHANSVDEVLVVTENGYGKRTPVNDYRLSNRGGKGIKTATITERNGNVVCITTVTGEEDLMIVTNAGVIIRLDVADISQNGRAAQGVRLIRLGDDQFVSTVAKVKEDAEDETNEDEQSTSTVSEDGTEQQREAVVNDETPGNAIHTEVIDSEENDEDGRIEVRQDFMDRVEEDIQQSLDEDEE
T1 sequence (P0A0K8 whole entry partner): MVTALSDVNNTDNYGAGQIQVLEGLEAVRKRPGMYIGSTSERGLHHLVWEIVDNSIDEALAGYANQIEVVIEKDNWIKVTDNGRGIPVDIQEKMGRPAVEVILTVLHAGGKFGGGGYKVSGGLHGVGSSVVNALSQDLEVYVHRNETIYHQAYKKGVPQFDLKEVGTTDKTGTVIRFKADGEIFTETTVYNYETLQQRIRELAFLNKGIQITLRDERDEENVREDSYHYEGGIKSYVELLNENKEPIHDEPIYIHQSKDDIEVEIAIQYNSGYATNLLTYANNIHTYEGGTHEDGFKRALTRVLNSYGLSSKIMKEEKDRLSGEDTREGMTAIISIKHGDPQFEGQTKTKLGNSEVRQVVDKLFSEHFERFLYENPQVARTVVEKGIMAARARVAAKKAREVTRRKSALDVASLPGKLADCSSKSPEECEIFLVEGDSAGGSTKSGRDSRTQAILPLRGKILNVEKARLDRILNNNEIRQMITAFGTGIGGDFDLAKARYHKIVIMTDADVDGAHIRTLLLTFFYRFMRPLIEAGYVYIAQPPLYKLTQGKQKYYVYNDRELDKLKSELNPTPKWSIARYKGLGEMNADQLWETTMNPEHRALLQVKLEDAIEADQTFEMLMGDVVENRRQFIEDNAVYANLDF
Excerpt: […]. […] IC50 value represents the mean of two to four independent measurements.

[6] = target: T2, S. aureus Topo IV (Staphylococcus aureus, UniProt Q2FYS4); experiment: biochemical; settings: mean of two to four measurements; read-out: Topoisomerase IV IC50 S. aureus
T2 construct: purchased Inspiralis (Norwich, UK)
T2 sequence (Q2FYS5 whole entry): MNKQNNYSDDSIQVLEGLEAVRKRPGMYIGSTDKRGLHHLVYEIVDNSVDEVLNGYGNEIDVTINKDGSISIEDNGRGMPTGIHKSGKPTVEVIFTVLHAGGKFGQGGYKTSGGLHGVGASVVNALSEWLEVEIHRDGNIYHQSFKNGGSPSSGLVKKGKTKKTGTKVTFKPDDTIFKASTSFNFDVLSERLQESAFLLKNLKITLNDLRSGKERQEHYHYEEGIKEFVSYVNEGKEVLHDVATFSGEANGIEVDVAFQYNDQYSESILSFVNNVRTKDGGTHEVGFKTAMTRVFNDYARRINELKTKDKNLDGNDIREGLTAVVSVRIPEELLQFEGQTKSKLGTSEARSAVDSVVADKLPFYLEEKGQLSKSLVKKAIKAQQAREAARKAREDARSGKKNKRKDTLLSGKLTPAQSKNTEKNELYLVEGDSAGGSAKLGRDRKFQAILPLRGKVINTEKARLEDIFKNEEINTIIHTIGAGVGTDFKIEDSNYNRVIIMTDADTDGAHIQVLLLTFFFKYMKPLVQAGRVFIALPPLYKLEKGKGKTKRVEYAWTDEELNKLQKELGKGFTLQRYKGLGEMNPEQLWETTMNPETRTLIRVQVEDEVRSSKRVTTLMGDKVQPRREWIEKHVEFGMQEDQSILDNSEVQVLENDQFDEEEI
T2 sequence (Q2FYS4 whole entry): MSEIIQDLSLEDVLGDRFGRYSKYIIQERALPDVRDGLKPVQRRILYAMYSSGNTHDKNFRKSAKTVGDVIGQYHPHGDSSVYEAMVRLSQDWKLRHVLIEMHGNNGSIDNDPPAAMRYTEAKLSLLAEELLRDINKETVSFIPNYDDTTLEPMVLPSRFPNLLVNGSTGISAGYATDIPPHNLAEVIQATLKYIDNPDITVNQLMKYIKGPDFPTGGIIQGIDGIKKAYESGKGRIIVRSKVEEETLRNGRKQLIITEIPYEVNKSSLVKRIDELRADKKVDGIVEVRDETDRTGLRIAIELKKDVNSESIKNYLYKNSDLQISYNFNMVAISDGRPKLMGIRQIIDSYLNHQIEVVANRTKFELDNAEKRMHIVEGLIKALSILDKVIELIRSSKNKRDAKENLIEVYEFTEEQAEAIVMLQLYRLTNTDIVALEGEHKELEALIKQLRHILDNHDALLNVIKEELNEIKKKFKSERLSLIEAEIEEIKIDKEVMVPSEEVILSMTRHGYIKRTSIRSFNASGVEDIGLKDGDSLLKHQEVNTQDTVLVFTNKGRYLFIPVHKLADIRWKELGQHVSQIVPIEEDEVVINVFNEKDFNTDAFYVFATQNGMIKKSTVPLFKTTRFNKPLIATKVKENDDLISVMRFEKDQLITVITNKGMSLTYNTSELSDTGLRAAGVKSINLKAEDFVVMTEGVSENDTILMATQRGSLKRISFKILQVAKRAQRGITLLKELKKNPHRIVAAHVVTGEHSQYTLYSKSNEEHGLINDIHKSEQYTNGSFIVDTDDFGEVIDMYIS
Protocol: A Topo IV Relaxation High Throughput Plate assay kit, purchased from Inspiralis (Norwich. UK) was used to determine IC50 values of compounds on S. aureus and E. coli. […] Biotinylated oligonucleotide in wash buffer was immobilized onto the wells, and the excess oligonucleotide was washed off with wash buffer and ultrapure water. 1.5 U of S. aureus or E. coli […] enzyme was incubated together with 0.75 μg of supercoiled pNO1 plasmid as a substrate in the presence of 3 μL inhibitor solution in 10% DMSO and 0.008% Tween 20 at 37 °C for 30 min in a final reaction volume of 30 μL in dilution buffer (50 mM Tris-HCl (pH 7.5), 1 mM DTT, 1 mM EDTA, 40% (w/v) glycerol for S. aureus and 40 mM HEPES, KOH (pH 7.6), 100 mM potassium glutamate, 1 mM DTT, 1 mM EDTA, and 40% (v/v) glycerol for E. coli). The reactions were stopped by adding the TF buffer (50 mM NaOAc (pH 4.7), 50 mM NaCl, and 50 mM MgCl2) to allow the triplex formation (biotin-oligonucleotide-plasmid) for additional 30 min. Afterward, the unbound plasmid was washed off using TF buffer, and the solution of Promega Diamond dye in T10 buffer (10 mM Tris-HCl (pH 8.0), 1 mM EDTA) was added. […] IC50 value represents the mean of two to four independent measurements.

[7] = target: T3, hERG potassium ion channel (Homo sapiens, UniProt Q12809); experiment: FP-based hERG binding assay (Invitrogen kit)
T3 construct: purchased Invitrogen (assay run at TCG Lifesciences Pvt. Ltd.)
T3 sequence (Q12809 whole entry): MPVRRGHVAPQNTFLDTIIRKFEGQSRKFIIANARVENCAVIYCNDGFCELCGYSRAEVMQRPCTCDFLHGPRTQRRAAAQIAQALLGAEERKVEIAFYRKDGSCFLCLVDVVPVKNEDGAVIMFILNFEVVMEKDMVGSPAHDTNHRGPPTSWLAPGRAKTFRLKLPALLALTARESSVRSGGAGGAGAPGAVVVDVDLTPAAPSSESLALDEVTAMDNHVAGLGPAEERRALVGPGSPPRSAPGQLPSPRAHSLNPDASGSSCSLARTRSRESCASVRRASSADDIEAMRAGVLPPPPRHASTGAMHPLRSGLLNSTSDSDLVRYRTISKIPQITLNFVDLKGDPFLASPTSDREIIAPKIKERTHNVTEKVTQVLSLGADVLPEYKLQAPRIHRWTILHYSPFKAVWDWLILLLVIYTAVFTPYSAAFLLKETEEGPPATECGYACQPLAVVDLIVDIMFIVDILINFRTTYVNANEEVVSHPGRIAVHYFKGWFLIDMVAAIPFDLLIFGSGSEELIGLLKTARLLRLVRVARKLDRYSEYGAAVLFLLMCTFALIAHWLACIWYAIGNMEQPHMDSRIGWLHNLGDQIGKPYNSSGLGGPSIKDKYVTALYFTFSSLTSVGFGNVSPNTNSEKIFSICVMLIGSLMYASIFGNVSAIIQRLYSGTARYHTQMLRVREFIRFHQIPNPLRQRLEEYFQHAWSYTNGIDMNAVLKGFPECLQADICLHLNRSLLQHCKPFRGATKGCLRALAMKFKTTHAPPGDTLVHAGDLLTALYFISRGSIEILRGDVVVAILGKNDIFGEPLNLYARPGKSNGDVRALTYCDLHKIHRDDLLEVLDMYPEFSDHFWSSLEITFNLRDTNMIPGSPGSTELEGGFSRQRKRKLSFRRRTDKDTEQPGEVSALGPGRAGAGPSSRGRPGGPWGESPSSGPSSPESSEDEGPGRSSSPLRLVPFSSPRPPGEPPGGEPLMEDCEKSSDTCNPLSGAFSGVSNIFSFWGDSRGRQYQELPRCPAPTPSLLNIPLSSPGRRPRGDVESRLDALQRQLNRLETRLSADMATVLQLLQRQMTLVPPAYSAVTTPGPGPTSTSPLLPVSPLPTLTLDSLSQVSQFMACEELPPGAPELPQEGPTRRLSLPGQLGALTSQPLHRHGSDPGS
Protocol: Cardiovascular safety profile was entirely outsourced. hERG screening was performed at TCG Lifesciences Pvt. Ltd., Kolkata, West Bengal, India with FP-based hERG binding assay (Invitrogen kit).

## COc1ccc2nccc(CCN3CCC(NCc4ccc(I)cc4)CC3)c2n1 [Compound 15]
[1]; HepG2, 72 h, metabolic activity after 72 h treatment
  IC50: ~10 µM
[2]
  solubility thermodynamic at 24 h: 184 µg/mL (≈ 366 µM)
[3]
  MIC: 1 µg/mL (≈ 1.99 µM)
[4]
  MIC: 0.25 µg/mL (≈ 0.498 µM)
[5]
  IC50: 0.011 ± 0.003 µM

## COc1ccc(CNC2CCN(CCc3ccnc4ccc(OC)nc34)CC2)cn1 [Compound 22, 1-(2-(6-Methoxy-1,5-naphthyridin-4-yl)ethyl)-N-((6-methoxypyridin-3-yl)methyl)piperidin-4-amine]
[1]; HepG2, metabolic activity after 72 h treatment
  IC50: 32.03 ± 0.3 µM
[2]
  solubility thermodynamic at 24 h: 1460 µg/mL (≈ 3580 µM)
[6]
  IC50: > 100 µM
[7]
  IC50: 3.05 µM
[3]
  MIC: > 128 µg/mL
[4]
  MIC: 4 µg/mL (≈ 9.82 µM)
